This note sets out measurements from PubChem BioAssay AID328 (DTP/NCI, 2004).

Where “and” joins values, the source holds several entries; their conditions need not be identical. Equal entries are not always repeated. Inconclusive results and toxic doses are left out.

The subject of the assay is BDF1 mice, P388 leukemia ip, median survival T/C. The experiment in a line: NCI In Vivo Anticancer Drug Screen. Data for tumor model P388 Leukemia (intraperitoneal) in B6D2F1 (BDF1) mice. The conditions noted are these: endpoint: median survival time, higher = longer survival. As to the method: The antitumor activity of compounds was measured in mice bearing transplantable tumors. Survival or tumor size were measured and the results are expressed as the measurement made in the treated group (T) divided by the measurement made in the vehicle treated control group (C). The tumor model used in this assay is P388 Leukemia (intraperitoneal) in B6D2F1 (BDF1) mice

The mark [1] stands for this setting: dose: 25.0 mg/kg/injection, schedule: Q01DX009 (ip), vehicle: saline with Tween-80.
[2] abbreviates: dose: 50.0 mg/kg/injection, schedule: Q01DX009 (ip), vehicle: saline with Tween-80.
Where [3] appears, read: dose: 50.0 mg/kg/injection, schedule: Q04DX003 (ip), vehicle: saline with Tween-80.
The mark [4] stands for this setting: dose: 100.0 mg/kg/injection, schedule: Q01DX009 (ip), vehicle: saline with Tween-80.
[5] abbreviates: dose: 100.0 mg/kg/injection, schedule: Q04DX003 (ip), vehicle: saline with Tween-80.
Where [6] appears, read: dose: 12.5 mg/kg/injection, schedule: Q01DX009 (ip), vehicle: saline with Tween-80.
[7] abbreviates: dose: 200.0 mg/kg/injection, schedule: Q04DX003 (ip), vehicle: saline with Tween-80.
Setting [8] is: dose: 400.0 mg/kg/injection, schedule: Q04DX003 (ip), vehicle: saline with Tween-80.
[9] abbreviates: dose: 50.0 mg/kg/injection, schedule: Q04DX003 (ip), vehicle: saline.
The mark [10] stands for this setting: dose: 200.0 mg/kg/injection, schedule: Q01DX009 (ip), vehicle: saline with Tween-80.

Take `COc1ccc(/C=N/NC(=O)C[n+]2ccccc2)c(OC)c1`: the T/C runs as follows: under setting [1], 104 % of control; (dose: 25.0 mg/kg/injection, schedule: Q04DX003 (ip), vehicle: saline with Tween-80) 118 % of control; under setting [2], 109 % of control; under setting [3], 104 % of control; under setting [4], 100 % of control; under setting [5], 104 % of control.

Turning to `Cc1nc(Cl)c(C(N)=O)nc1C`, the T/C by setting is: under setting [6], 91 % of control; under setting [1], 88 % of control and 94 % of control; under setting [2], 97 % of control; under setting [3], 113 % of control; under setting [4], 90 % of control and 106 % of control; under setting [5], 96 % of control. In addition, the T/C is, setting by setting: (dose: 150.0 mg/kg/injection, schedule: Q01DX009 (ip), vehicle: saline with Tween-80) 97 % of control; under setting [7], 92 % of control; under setting [8], 99 % of control.

Take `CCNC(=O)Nc1ccc(N(CC)CC)cc1`: the T/C reads like this: under setting [5], 100 % of control; under setting [7], 100 % of control; under setting [8], 100 % of control.

With `NC(N)=Nc1ccc(C(=O)Oc2c(Cl)cc([N+](=O)[O-])cc2Cl)cc1`, the T/C (dose: 0.18 mg/kg/injection, schedule: Q01DX009 (ip), vehicle: saline) was 94 % of control; the T/C (dose: 0.39 mg/kg/injection, schedule: Q01DX009 (ip), vehicle: saline) was 92 % of control; the T/C (dose: 0.78 mg/kg/injection, schedule: Q01DX009 (ip), vehicle: saline) was 96 % of control; the T/C (dose: 1.56 mg/kg/injection, schedule: Q01DX009 (ip), vehicle: saline) was 102 % of control; the T/C (dose: 3.12 mg/kg/injection, schedule: Q01DX009 (ip), vehicle: saline) was 86 % of control; the T/C under setting [9] was 95 % of control. In addition, the T/C (dose: 100.0 mg/kg/injection, schedule: Q04DX003 (ip), vehicle: saline) is 113 % of control.

Turning to `Cc1cc(N(C)C)cc(C)c1/C=C\c1ccnc2ccccc12`, the T/C reads like this: (dose: 100.0 mg/kg/injection, schedule: Q04DX002 (ip), vehicle: saline with Tween-80) 112 % of control; (dose: 200.0 mg/kg/injection, schedule: Q04DX002 (ip), vehicle: saline with Tween-80) 107 % of control; (dose: 400.0 mg/kg/injection, schedule: Q04DX002 (ip), vehicle: saline with Tween-80) 117 % of control.

Regarding `COc1ccc(/C=N/Nc2nc3ccc4ccccc4c3s2)cc1`, the T/C by setting is: under setting [2], 90 % of control; under setting [4], 101 % of control; under setting [10], 115 % of control.

For the compound `O=CC(=O)c1ccc(O)cc1`, the T/C is 109 % of control (dose: 50.0 mg/kg/injection, schedule: Q04DX003 (ip), vehicle: saline sonified) and 86 % of control (dose: 300.0 mg/kg/injection, schedule: Q04DX003 (ip), vehicle: saline with Tween-80).

`O=C(OC1C(OC(=O)C(Cl)Cl)C(OC(=O)C(Cl)Cl)C(OC(=O)C(Cl)Cl)C(OC(=O)C(Cl)Cl)C1OC(=O)C(Cl)Cl)C(Cl)Cl` (stereo not drawn): the T/C is 95 % of control (dose: 37.5 mg/kg/injection, schedule: Q01DX001 (ip), vehicle: saline sonified); 100 % of control (dose: 75.0 mg/kg/injection, schedule: Q01DX001 (ip), vehicle: saline sonified); 86 % of control (dose: 150.0 mg/kg/injection, schedule: Q01DX001 (ip), vehicle: saline sonified).

Turning to `CCCCCC(=O)c1ccc(OCCCN2CCN(C(=O)OCC)CC2)cc1`, the T/C reads like this: under setting [4], 105 % of control; under setting [10], 104 % of control.

With `NC(=S)/N=C\C(CC(O)C(O)C(O)CO)=N\NC(N)=S` (stereo not drawn), the T/C (dose: 6.25 mg/kg/injection, schedule: Q01DX009 (ip), vehicle: saline with Tween-80) is 88 % of control and 97 % of control and 100 % of control; the T/C under setting [6] is 99 % of control and 100 % of control and 108 % of control; the T/C under setting [2] is 97 % of control and 115 % of control.

As for `Cc1ccc(S(=O)(=O)NC(=O)OC23COCN2COC3)cc1`, the T/C under setting [2] is 116 % of control.

Take `COc1cccc2c1C(=O)c1c(O)c3c(c(O)c1C2=O)CC(O)(/C(C)=N/NC(=O)c1cc(C(F)(F)F)cc(C(F)(F)F)c1)CC3OC1CC(N)C(O)C(C)O1` (stereo not drawn): the T/C reads like this: (dose: 3.13 mg/kg/injection, schedule: Q04DX003 (ip), vehicle: water) 113 % of control; (dose: 6.25 mg/kg/injection, schedule: Q04DX003 (ip), vehicle: water) 109 % of control; (dose: 12.5 mg/kg/injection, schedule: Q04DX003 (ip), vehicle: water) 153 % of control; (dose: 25.0 mg/kg/injection, schedule: Q04DX003 (ip), vehicle: water) 153 % of control; (dose: 50.0 mg/kg/injection, schedule: Q04DX003 (ip), vehicle: water) 118 % of control.

Regarding `COc1ccc2c(c1)C(C)(C)Oc1cc3oc(C(=O)O)cc(=O)c3cc1-2`, the T/C under setting [5] is 104 % of control, the T/C under setting [7] was 101 % of control and the T/C under setting [8] is 104 % of control.

On to `NC(=O)CC[n+]1ccccc1`, for which the T/C (dose: 12.5 mg/kg/injection, schedule: Q01DX009 (ip), vehicle: saline) was 94 % of control; the T/C (dose: 25.0 mg/kg/injection, schedule: Q01DX009 (ip), vehicle: saline) is 100 % of control; the T/C (dose: 50.0 mg/kg/injection, schedule: Q01DX009 (ip), vehicle: saline) is 99 % of control.

With `COc1cc(-c2ccc(NC(=O)NC3CC3)c(OC)c2)ccc1NC(=O)NC1CC1`, the T/C runs as follows: (dose: 50.0 mg/kg/injection, schedule: Q01DX005 (ip), vehicle: saline with Tween-80) 89 % of control; (dose: 100.0 mg/kg/injection, schedule: Q01DX005 (ip), vehicle: saline with Tween-80) 91 % of control.

As to `CC1=CC(=O)c2ccccc2C1=O`, the T/C (dose: 8.8 mg/kg/injection, schedule: Q01DX010 (ip), vehicle: carboxymethylcellulose (CMC)) was 110 % of control; the T/C (dose: 13.3 mg/kg/injection, schedule: Q01DX010 (ip), vehicle: carboxymethylcellulose (CMC)) was 110 % of control; the T/C (dose: 20.0 mg/kg/injection, schedule: Q01DX010 (ip), vehicle: carboxymethylcellulose (CMC)) is 90 % of control; the T/C (dose: 30.0 mg/kg/injection, schedule: Q01DX010 (ip), vehicle: carboxymethylcellulose (CMC)) is 115 % of control.

For `CC1CCC2C(C1)N(C(C)C)OC2(C)C` (stereo not drawn), the T/C is, setting by setting: under setting [5], 109 % of control; under setting [7], 100 % of control; under setting [8], 90 % of control.

`C1=C(c2ccccc2)CS1`: the T/C reads like this: (dose: 25.0 mg/kg/injection, schedule: Q01DX001 (ip), vehicle: saline with Tween-80) 104 % of control; (dose: 50.0 mg/kg/injection, schedule: Q01DX001 (ip), vehicle: saline with Tween-80) 101 % of control.

With `CCOCCN1C=C/C(=C/C=C/c2cc[n+](CCOCC)c3ccccc23)c2ccccc21`, the T/C by setting is: (dose: 0.22 mg/kg/injection, schedule: Q01DX009 (ip), vehicle: Klucel (hydroxypropylcellulose) (HPC)) 100 % of control; (dose: 0.45 mg/kg/injection, schedule: Q01DX009 (ip), vehicle: Klucel (hydroxypropylcellulose) (HPC)) 100 % of control; (dose: 0.9 mg/kg/injection, schedule: Q01DX009 (ip), vehicle: Klucel (hydroxypropylcellulose) (HPC)) 105 % of control.

As to `CCC(C(=O)O)C(=O)O.[NH-]CC[NH-].[Pt+2]`, the T/C runs as follows: (dose: 25.0 mg/kg/injection, schedule: Q04DX003 (ip), vehicle: saline) 100 % of control; (dose: 33.0 mg/kg/injection, schedule: Q04DX003 (ip), vehicle: saline) 118 % of control; under setting [9], 154 % of control.

As for `COc1cccc(/C=C/C(=O)c2ccc(Cl)cc2)c1OC`, the T/C is 95 % of control (dose: 50.0 mg/kg/injection, schedule: Q01DX009 (ip), vehicle: other); 104 % of control (dose: 100.0 mg/kg/injection, schedule: Q01DX009 (ip), vehicle: other); 100 % of control under setting [4]; 95 % of control (dose: 200.0 mg/kg/injection, schedule: Q01DX009 (ip), vehicle: other); 100 % of control (dose: 400.0 mg/kg/injection, schedule: Q01DX009 (ip), vehicle: saline with Tween-80).

On to `COC(OC)c1cc(=O)[nH]c(=S)n1Cl`, for which the T/C by setting is: (dose: 100.0 mg/kg/injection, schedule: Q04DX003 (ip), vehicle: Klucel (hydroxypropylcellulose) (HPC)) 100 % of control; (dose: 200.0 mg/kg/injection, schedule: Q04DX003 (ip), vehicle: Klucel (hydroxypropylcellulose) (HPC)) 104 % of control; (dose: 400.0 mg/kg/injection, schedule: Q04DX003 (ip), vehicle: Klucel (hydroxypropylcellulose) (HPC)) 100 % of control.
